pIC50: −log10 of the molar value.
Columns and labels:
[1] = target: FGFR4 kinase (Homo sapiens (Human), UniProt P22455); assay: Enzymologic experiment of FGFR4 (TR-FRET); format: biochemical; conditions: FGFR4 kinase activity
Protocol: In this experiment, the inhibitory effect of the compounds on FGFR4 kinase activity was tested by a fluorescence resonance energy transfer (TR-FRET) method, and the half maximal inhibitory concentration (IC50) of the compounds on the FGFR4 kinase activity was determined.
2) 1˜5 μL of diluted solution in gradient of the compound was added.
3) 1˜5 μL of a substrate mixture containing substrate polypeptide with a final concentration of 5˜50 nM and ATP with a final concentration of 10˜200 μM was added.
4) The mixture was incubated for 0.5˜3 hours at room temperature.
5) 10 μL of EDTA and a test solution comprising labeled antibody were added, and the plate was incubated for 1 hour at room temperature.
7) The inhibition rates were calculated according to the fluorescence signal values.

[2] = Pharmacokinetic (PK) analysis in rats; format: in vivo, Sprague Dawley (SD) rats; conditions: SD rats, single intragastric administration, 5 mg/kg; for Peak Time tmax: (sampling in hours); for AUC(0-t) / AUC(0-inf) / half-life / MRT / Cmax: Sprague-Dawley, rat, plasma, po; for AUC(0-t): read-out: Area Under Curve AUC0-t; for AUC(0-inf): read-out: Area Under Curve AUC0-∞; for half-life: read-out: Half-Time t1/2 (converted); for MRT: read-out: Mean Residence Time MRT; for Cmax: read-out: Plasma Concentration Cmax
Method in brief: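 Intravenous blood (0.2 ml) was collected into K2EDTA and centrifuged to obtain plasma. Plasma (40 μL) was protein-precipitated with 160 μL acetonitrile. Compound levels were measured by LC/MS/MS on a C18 column using 0.1% formic acid in water and acetonitrile at 0.8 mL/min.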

[3] = test system: SK-HEP-1 cells; assay: Inhibition of SK-HEP-1 cell proliferation (CellTiter-Glo); format: cell-based; conditions: Homo sapiens, SK-HEP1; SK-HEP-1 cell proliferation, 72 hours, CellTiter-Glo; read-out: SK-HEP-1 IC50
Method in brief: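 Cells seeded and allowed to attach 16–24 h, then exposed to serially diluted compound for 72 h at 37 °C, 5% CO2. Viability read by CellTiter-Glo luminescence; IC50 fitted from inhibition rates across concentrations.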

[4] = target: FGFR1 kinase (Homo sapiens (Human), UniProt P11362); assay: Enzymologic experiment of FGFR1 (TR-FRET); format: biochemical; conditions: FGFR1 kinase activity
Method in brief: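 FGFR1 at 0.1˜5 nM final with substrate peptide 5˜50 nM and ATP 10˜200 μM final, 0.5˜3 h at room temperature. Stopped with EDTA plus labeled antibody for 1 h; TR-FRET signal read at 665 nm, IC50 fitted from inhibition rates.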

[5] = test system: Hep 3B cells; assay: Inhibition of Hep 3B cell proliferation (CellTiter-Glo); format: cell-based; conditions: Homo sapiens, Hep3B; Hep 3B cell proliferation, 72 hours, CellTiter-Glo; read-out: Hep 3B IC50
[6] = test system: HuH-7 cells; assay: Inhibition of HuH-7 cell proliferation (CellTiter-Glo); format: cell-based; conditions: Homo sapiens; HuH-7 cell proliferation, 72 hours, CellTiter-Glo; read-out: HuH-7 IC50
Method in brief: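 HuH-7 cells plated and left 16–24 h, then exposed to serially diluted compound for 72 h at 37 °C, 5% CO2. Viability read by CellTiter-Glo luminescence. IC50 obtained by curve fitting of inhibition rates.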

Chain of FGFR4 kinase (P22455 22-802): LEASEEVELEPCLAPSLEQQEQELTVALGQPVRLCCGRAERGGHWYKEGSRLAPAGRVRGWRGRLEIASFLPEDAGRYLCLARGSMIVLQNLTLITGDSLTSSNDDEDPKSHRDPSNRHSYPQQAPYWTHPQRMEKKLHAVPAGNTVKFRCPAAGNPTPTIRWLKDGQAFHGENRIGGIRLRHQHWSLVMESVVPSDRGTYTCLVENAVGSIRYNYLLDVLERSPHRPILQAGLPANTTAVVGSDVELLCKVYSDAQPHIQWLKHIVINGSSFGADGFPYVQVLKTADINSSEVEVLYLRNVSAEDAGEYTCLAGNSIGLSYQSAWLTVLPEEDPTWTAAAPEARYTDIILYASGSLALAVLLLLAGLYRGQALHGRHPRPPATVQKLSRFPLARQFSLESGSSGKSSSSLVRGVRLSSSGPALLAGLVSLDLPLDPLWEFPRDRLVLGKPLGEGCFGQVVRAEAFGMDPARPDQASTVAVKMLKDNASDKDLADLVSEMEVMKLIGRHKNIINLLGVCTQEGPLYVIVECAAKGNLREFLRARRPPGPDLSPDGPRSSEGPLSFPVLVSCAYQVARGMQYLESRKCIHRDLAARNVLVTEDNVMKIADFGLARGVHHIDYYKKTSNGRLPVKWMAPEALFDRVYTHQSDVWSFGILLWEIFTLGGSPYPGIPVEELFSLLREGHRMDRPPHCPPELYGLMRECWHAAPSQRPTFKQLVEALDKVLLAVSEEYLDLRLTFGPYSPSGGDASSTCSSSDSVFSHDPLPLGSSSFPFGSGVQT
Chain of FGFR1 kinase (P11362 22-822): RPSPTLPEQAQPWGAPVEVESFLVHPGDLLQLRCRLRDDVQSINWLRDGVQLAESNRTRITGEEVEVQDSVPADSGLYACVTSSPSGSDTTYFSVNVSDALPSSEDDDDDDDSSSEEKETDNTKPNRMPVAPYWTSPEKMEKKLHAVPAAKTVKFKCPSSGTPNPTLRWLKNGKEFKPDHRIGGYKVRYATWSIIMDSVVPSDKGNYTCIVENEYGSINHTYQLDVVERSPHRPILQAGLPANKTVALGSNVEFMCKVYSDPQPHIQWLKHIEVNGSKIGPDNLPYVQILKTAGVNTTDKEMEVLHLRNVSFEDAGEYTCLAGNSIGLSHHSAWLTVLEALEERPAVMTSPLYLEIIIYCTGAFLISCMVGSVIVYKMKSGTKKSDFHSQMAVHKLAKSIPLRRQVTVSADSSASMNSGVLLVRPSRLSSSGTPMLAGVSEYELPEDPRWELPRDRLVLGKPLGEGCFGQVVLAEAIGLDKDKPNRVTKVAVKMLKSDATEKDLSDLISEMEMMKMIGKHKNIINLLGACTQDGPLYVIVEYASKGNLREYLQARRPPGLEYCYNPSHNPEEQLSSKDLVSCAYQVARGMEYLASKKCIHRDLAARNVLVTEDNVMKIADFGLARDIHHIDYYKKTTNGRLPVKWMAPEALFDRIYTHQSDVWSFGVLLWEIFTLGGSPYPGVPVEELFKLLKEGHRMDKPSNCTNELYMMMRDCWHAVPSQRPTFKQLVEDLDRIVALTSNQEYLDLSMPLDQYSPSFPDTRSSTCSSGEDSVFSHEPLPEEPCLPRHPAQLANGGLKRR

SMILES | pIC50 [1] | Peak Time tmax [2] [h] | AUC(0-t) [2] [ng·h/mL] | AUC(0-inf) [2] [ng·h/mL] | half-life [2] [h] | MRT [2] [h] | Cmax [2] [ng/mL] | pIC50 [3] | pIC50 [4] | pIC50 [6] | pIC50 [5]
CC1COC(=O)N1Cc1cc2c(nc1C=O)N(C(=O)Nc1cc(S[C@@H]3CCOC3)c(C#N)cn1)CCC2 (stereo partly drawn) [Example 44, N-(5-Cyano-4-(((R)-tetrahydrofuran-3-yl)thio)pyridin-2-yl)-7-formyl-6-(((S)-4-methyl-2-carbonyloxazolidin-3-yl)methyl)-3,4-dihydro-1,8-naphthyridin-1(2H)-carboxamide] | 8.19 |  |  |  |  |  |  | < 5.00 | < 5.00 | 7.45 | 7.94
C[C@H]1COC(=O)N1Cc1cc2c(nc1C=O)N(C(=O)Nc1cc(S[C@H]3CCOC3)c(C#N)cn1)CCC2 [Example 45, N-(5-Cyano-4-(((S)-tetrahydrofuran-3-yl)thio)pyridin-2-yl)-7-formyl-6-(((S)-4-methyl-2-carbonyloxazolidin-3-yl)methyl)-3,4-dihydro-1,8-naphthyridin-1(2H)-carboxamide] | 8.33 |  |  |  |  |  |  | < 5.00 | < 5.00 | 7.49 | 7.85
CO[C@H]1COCC1Nc1cc(NC(=O)N2CCCc3cc(CN4C(=O)OCC4C)c(C=O)nc32)ncc1C#N (stereo partly drawn) [Example 46, N-(5-Cyano-4-trans-(((3,4)-4-methoxytetrahydrofuran-3-yl)amino)pyridin-2-yl) -7-formyl-6-(((S)-4-methyl-2-carbonyloxazolidin-3-yl)methyl)-3,4-dihydro-1,8-naphthyridin-1(2H)-carboxamide] | 8.53 | 4 | 1530 | 1530 | 2.55 | 6.24 | 1930 | < 5.00 | < 5.00 | 7.35 | 7.90
CO[C@H]1COCC1Oc1cc(NC(=O)N2CCCc3cc(CN4C(=O)OC[C@@H]4C)c(C=O)nc32)ncc1C#N (stereo partly drawn) [Example 47, N-(5-Cyano-4-(((3,4)-trans-4-methoxytetrahydrofuran-3-yl)oxy)pyridin-2-yl)-7-formyl-6-(((S)-4-methyl-2-carbonyloxazolidin-3-yl)methyl)-3,4-dihydro-1,8-naphthyridin-1(2H)-carboxamide] | 8.31 |  |  |  |  |  |  | < 5.00 | < 5.00 | 7.61 | 8.00
COC[C@@H](C)Oc1cc(NC(=O)N2CCCc3cc(CN4CCOC4=S)c(C=O)nc32)ncc1C#N [Example 48, (R)-N-(5-Cyano-4-((1-methoxypropan-2-yl)oxy)pyridin-2-yl)-7-formyl-6-((2-thiooxazolidin-3-yl)methyl)-3,4-dihydro-1,8-naphthyridin-1(2H)-carboxamide] | 8.07 |  |  |  |  |  |  | < 5.00 | < 5.00 | 7.81 | 7.88
CO[C@H]1CCN(c2cc(NC(=O)N3CCCc4cc(CN5CCN(C)CC5=O)c(C=O)nc43)ncc2C#N)C1 [Example 63, (S)-N-(5-Cyano-4-(3-methoxypyrrolidin-1-yl)pyridin-2-yl)-7-formyl-6-((4-methyl-2-carbonylpiperazin-1-yl)methyl)-3,4-dihydro-1,8-naphthyridin-1(2H)-carboxamide] | 8.60 | 2 | 4990 | 4030 | 0.91 | 2.7 | 2060 | < 5.00 | < 5.00 | 7.54 | 7.86
CO[C@@H]1CCN(c2cc(NC(=O)N3CCCc4cc(CN5CCN(C)CC5=O)c(C=O)nc43)ncc2C#N)C1 [Example 64, (R)-N-(5-Cyano-4-(3-methoxypyrrolidin-1-yl)pyridin-2-yl)-7-formyl-6-((4-methyl-2-carbonylpiperazin-1-yl)methyl)-3,4-dihydro-1,8-naphthyridin-1(2H)-carboxamide] | 8.79 |  |  |  |  |  |  | < 5.00 | < 5.00 | 7.84 | 8.28
CO[C@H]1COCC1Nc1cc(NC(=O)N2CCCc3cc(CN4CCOCC4=O)c(C=O)nc32)ncc1C#N (stereo partly drawn) [Example 66, N-(5-Cyano-4-(((trans)-4-methoxytetrahydrofuran-3-yl)amino)pyridin-2-yl)-7-formyl-6-((3-carbonylmorpholino)methyl)-3,4-dihydro-1,8-naphthyridin-1(2H)-carboxamide] | 9.01 | 4 | 2480 | 2540 | 1 | 3.6 | 1880 | < 5.00 | < 5.00 | 7.93 | 8.48
CO[C@H]1COCC1Oc1cc(NC(=O)N2CCCc3cc(CN4CCOCC4=O)c(C=O)nc32)ncc1C#N (stereo partly drawn) [Example 67, N-(5-Cyano-4-(((3,4)-trans-4-methoxytetrahydrofuran-3-yl)oxy)pyridin-2-yl)-7-formyl-6-((3-carbonylmorpholino)methyl)-3,4-dihydro-1,8-naphthyridin-1(2H)-carboxamide] | 8.64 | 4 | 3990 | 4070 | 0.88 | 4.17 | 2840 | < 5.00 | < 5.00 | 7.53 | 7.78

Now from value to molecule, other results behind:

pIC50 [1] | Peak Time tmax [2] [h] | AUC(0-t) [2] [ng·h/mL] | AUC(0-inf) [2] [ng·h/mL] | half-life [2] [h] | MRT [2] [h] | Cmax [2] [ng/mL] | pIC50 [3] | pIC50 [4] | pIC50 [6] | SMILES | pIC50 [5]
8.47 | 2 | 4790 | 4940 | 1.16 | 3.74 | 2060 | < 5.00 | < 5.00 | 8.07 | COc1ccccc1Nc1cc(NC(=O)N2CCCc3cc(CN4CCOCC4=O)c(C=O)nc32)ncc1C#N [Example 8, N-(5-Cyano-4-((2-methoxyphenyl)amino)pyridin-2-yl)-7-formyl-6-((3-carbonylmorpholino)methyl)-3,4-dihydro-1,8-naphthyridin-1(2H)-carboxamide] | 9.05
8.56 | 4 | 5530 | 5690 | 0.98 | 3.86 | 1290 | < 5.00 | < 5.00 | 7.62 | CONc1cc(NC(=O)N2CCCc3cc(CN4CCOCC4=O)c(C=O)nc32)ncc1C#N [Example 54, N-(5-Cyano-4-(methoxyamino)pyridin-2-yl)-7-formyl-6-((3-carbonylmorpholino)methyl)-3,4-dihydro-1,8-naphthyridine-1(2H)-carboxamide] | 7.76
8.12 |  |  |  |  |  |  | < 5.00 | < 5.00 | 7.61 | COc1ncccc1CNc1cc(NC(=O)N2CCCc3cc(CN4CCOCC4=O)c(C=O)nc32)ncc1C#N [Example 57, N-(5-Cyano-4-(((2-methoxypyridin-3-yl)methyl)amino)pyridin-2-yl)-7-formyl-6-((3-carbonylmorpholino)methyl)-3,4-dihydro-1,8-naphthyridin-1(2H)-carboxamide] | 7.99
8.87 |  |  |  |  |  |  | < 5.00 | < 5.00 | 7.71 | CO[C@H]1CCOCC1Nc1cc(NC(=O)N2CCCc3cc(CN4CCOCC4=O)c(C=O)nc32)ncc1C#N (stereo partly drawn) [Example 70, N-(5-Cyano-4-(((3,4)-trans-4-methoxytetrahydro-2H-pyran-3-yl)amino)pyridin-2-yl)-7-formyl-6-((3-carbonylmorpholino)methyl)-3,4-dihydro-1,8-naphthyridin-1(2H) -carboxamide] | 8.21

From patent US11667631B2, “FGFR4 inhibitor, preparation method therefor, and applications thereof” (Jiangsu Hansoh Pharmaceutical Group Co., Ltd., priority 2016, dated 2023)
